Data on nine compounds can be found in patent US20150125452A1, “COMBINATION TREATMENTS COMPRISING C-MET ANTAGONISTS AND B-RAF ANTAGONISTS” (GENENTECH, INC., priority 2011, published 2015).

Experiment [1] relates to kinase-addicted cancer cell lines. In words: RTK ligand matrix screen, Syto 60 cell viability. In kind it is cell-based, Human. The following applies: for effect of RTK ligand on conferring drug resistance to kinase inhibitors: 50 ng/mL RTK ligand, 72 h, 41 cell lines. The procedure: (§1) Cell viability was assessed using the nucleic acid stain Syto 60 (Invitrogen). Cells (3000-5000 per well) were seeded into 96 well plates and allowed to adhere overnight. The next day, cells were treated with (or without) 50 ng/mL RTK ligand and concomitantly exposed to an increasing concentration range of the relevant kinase inhibitor. Following 72 hours drug exposure, cells were fixed in 4% formaldehyde, stained with Syto 60 and cell number was assessed using an Odyssey scanner (Li-Cor). Cell viability was calculated by dividing the fluorescence obtained from the drug-treated cells by the fluorescence obtained from the control (no drug) treated cells.
Cell lines. Human cancer cell lines were obtained and tested for sensitivity using an automated platform as previously described (Johannessen, C. M. et al. COT drives resistance to RAF inhibition through MAP kinase pathway reactivation. Nature 468, 968-972, doi:10.1038/nature09627 (2010)). Cell lines were maintained at 37° C. in a humidified atmosphere at 5% CO2 and grown in RPMI 1640 or DMEM/F12 growth media (GIBCO) supplemented with 10% fetal bovine serum (GIBCO), 50 units/mL penicillin and 50 μg/mL streptomycin (GIBCO).
Using 41 different human tumor-derived cell lines with previously defined kinase dependency^7-9, we undertook a “matrix analysis” to examine the effects of 6 different RTK ligands (HGF, EGF, FGF, PDGF, NRG1, IGF)—known to be widely expressed in cancer cells and tumor stroma^10—on drug response. Specifically, we quantified the effect of exposing these cancer cell lines (e.g., AU565 (HER2 amp)) to each ligand on the IC50 for a kinase inhibitor (e.g., lapatinib) that otherwise potently suppresses their growth within 72 hours (FIG. 1A). Nearly all of the kinase-dependent cancer cell lines tested, which included cells derived from multiple tissue types and with distinct kinase dependencies (EGFR, HER2, BRAF, MET, ALK, PDGFR, and FGFR), could be rescued from drug-induced growth inhibition by one or more RTK ligands, highlighting the potentially broad contribution of these ligands to the response to selective kinase inhibitors in kinase-addicted tumor cells (FIG. 1B).

Another experiment concerns 928MEL xenografts. The experiment can be described thus: Xenograft tumour growth assay. The format is in vivo, CRL C.B-17 SCID.bg mice. The following applies: for tumor regression, B-raf antagonist plus c-met antagonist versus PLX[…] alone: PLX[…]-treated xenografts. The procedure:
[…] Differences between the 2 groups were determined using two-way ANOVA (*=0.0008).
All procedures conformed to the guidelines and principles set by the Institutional Animal care and Use Committee of Genentech and were carried out in an AAALAC (Association for the Assessment and Accreditation of Laboratory Animal care) accredited facility. […] Tumor volumes were calculated using the formula (Lx(W×W))/2. A partial response (PR) in this example was defined as a reduction in tumour volume greater than 50% but less than 100%. A complete response (CR) in this example was defined as 100% reduction in tumour volume. […]

The subject of experiment [2] is kinase-addicted cancer cell lines. In words: RTK ligand matrix screen, Syto 60 cell viability. The format is cell-based, Human. The following applies: six kinase addicted cell lines, six RTK ligands.
Experiment [3] relates to BRAF mutant melanoma cell lines. In words: Syto 60 cell viability, HGF rescue from PLX[…]. In kind it is cell-based, Human. The procedure:
Cells were treated twice weekly for the indicated times. […] Error bars represent mean+/−s.e.m.
Cell viability was assessed using the nucleic acid stain Syto 60 (Invitrogen). Cells (3000-5000 per well) were seeded into 96 well plates and allowed to adhere overnight. The next day, cells were treated with (or without) 50 ng/mL RTK ligand and concomitantly exposed to an increasing concentration range of the relevant kinase inhibitor. […] Cell viability was calculated by dividing the fluorescence obtained from the drug-treated cells by the fluorescence obtained from the control (no drug) treated cells.

Experiment [4] concerns HCC1954 HER2 amplified breast cancer cells. Conditions: lapatinib 5 μM, crizotinib 1 μM, twice weekly. The procedure:
Cells were treated twice weekly for the indicated times.
The effects of MET kinase inhibition to delay lapatinib resistance in HCC 1954 cells were examined.

In experiment [5] the test system is AKT and ERK phosphorylation. The experiment can be described thus: Immunoblots of survival pathway re-activation. Conditions: for PI3K/MAPK pathway re-activation by RTK ligand in presence of kinase inhibitor: 50 ng/mL ligand, kinase inhibitor 1 μM, 2 h. In kind it is cell-based, Human. The procedure: FIGS. 2A-2C: pro-survival pathway re-activation correlated with RTK ligand rescue. FIG. 2A, Immunoblots showing the effect of acute RTK ligand treatment (50 ng/mL) on AKT and ERK phosphorylation following kinase inhibition (1 μM, 2 h). RTK ligand rescue is indicated, grey squares indicates complete rescue and black squares indicates partial rescue as determined by the initial screen (FIG. 1B). […] Cells were co-treated with 50 ng/mL RTK ligand in the presence of the appropriate secondary kinase inhibitor (0.5 μM) as indicated. […] Error bars represent mean+/−s.e.m. FIG. 2C, Immunoblots showing the effect of acute kinase inhibition (1 μM) in the presence and absence of RTK ligands (50 ng/mL, 2 h) on AKT and ERK phosphorylation. Cells were co-treated with secondary kinase inhibitor (0.5 μM) as appropriate.
Cell lysates were harvested using Nonidet-P40 lysis buffer, supplemented with Halt protease and phosphatase inhibitor cocktail (Thermo Scientific) and immunodetection of proteins was carried out using standard protocols. The phospho-HER2 (Y1248; #2247), HER2 (#2242), phospho-HER3 (Y1289; #4791), phospho-MET (Y1234/5; #3126), PDGFRα (#5241), phospho-FRS2α (Y196; #3864), IGF-1Rβ (#3027), phospho-ALK (Y1604; #3341), AKT (#9272), phospho-ERK (T202/Y204; #9101), ERK (#9102), GAPDH (#2118) and β-Tubulin (#2146) antibodies were purchased from Cell Signaling Technologies. Antibodies to HER3 (SC-285), MET (SC-10), phospho-PDGFRα (SC-12911), FRS2α (SC-8318), FGFR1 (SC-7945), FGFR2 (SC-122), FGFR3 (SC-13121) and ALK (SC-25447) were purchased from Santa Cruz Biotechnologies. Phospho-AKT (S473; #44-621G) antibody was purchased from Invitrogen. Phospho-EGFR (Y1068; ab5644) antibody was purchased from Abeam. EGFR (#610017) antibody was purchased from BD Biosciences. PARP (#14-6666-92) antibody was purchased from eBioscience. Densitometry was carried out using ImageJ software.
Background: In western blotting, separated proteins are transferred to a membrane and probed.

The subject of experiment [6] is AU565 HER2 amplified breast cancer cells. In words: Syto 60 viability and long-term staining with lapatinib and ligands. In kind it is cell-based, Human. Conditions: lapatinib 1 μM, 10 ng/mL NRG1, FGF or combination, 72 h. The procedure: FIGS. 3A-3G: HGF promoted lapatinib resistance in HER2 amplified cell lines. […] HGF rescue is indicated, black squares indicates partial rescue as determined by the initial screen (FIG. 1B). […] Cells were treated every three days for the indicated times. […] FIG. 3D, Immunoblots showing the re-activation of pAKT and pERK in two MET positive (AU565, HCC1954) and one MET negative (BT474) HER2 amplified cell lines. […] FIG. 3E, Representative slides showing MET expression in HER2 positive (3+) breast cancer tissues. FIG. 3F, selection of higher MET expressing AU565 cells following 3× treatments with lapatinib (1 μM) and HGF (50 ng/mL). FIG. 3G. […] Cells were treated twice weekly for the indicated times.
AU565 sells were co-treated with lapatinib (1 μM) in combination with 10 ng/mL NRG1 or FGF. […] Cells were treated with the appropriate kinase inhibitors in the presence of HGF (50 ng/mL). Cells were then treated with either 100 nM PI3K inhibitor (BEZ235) or MAPK inhibitor (AZD6244). Error bars represent mean+/−s.e.m.
as §1

The test system of experiment [7] is HER2-amplified breast cancer cell lines. The experiment can be described thus: Syto 60 cell viability, ligand rescue from lapatinib. The format is cell-based, Human. The following applies: 50 ng/mL ligand, 72 h. The procedure: as §1
The ability of HGF to rescue 3 of 9 tested HER2-amplified breast cancer cell lines from growth inhibition by the HER2 kinase inhibitor lapatinib was also unexpected (FIG. 3A). These 3 cell lines all express MET, and expression was well correlated with the ability of HGF to attenuate lapatinib response (FIG. 3B).

The subject of experiment [8] is BRAF mutant metastatic melanoma patients. The experiment can be described thus: BRIM2 clinical trial, outcome by plasma HGF level. In kind it is in vivo, human. The following applies: PLX[…]-treated patients.
Method: Plasma was obtained from metastatic melanoma patients pre-dose cycle one and the concentration of HGF in patient-derived plasma were quantitatively measured using a sandwich enzyme-linked immunosorbent assay (ELISA). Wells of NUNC MaxiSorp microtiter plates were coated (ON, 4° C.) with 0.5 μg/mL of affinity-purified Goat antihuman hepatocyte growth factor polyclonal antibody in 100 μL of coating buffer (0.05M sodium carbonate buffer, pH 9.6) and were then blocked with 0.5% bovine serum albumin (BSA) in assay buffer (PBS, 0.5% BSA, 0.05% P 20, 0.25% CHAPS, 0.35M NaCl, 5 mM EDTA, 10 ppm Proclin300, pH 7.4) for 1 hour at room temperature. Diluted human hepatocyte growth factor controls and plasma samples (100 μL) in assay buffer were loaded in duplicates and incubated for 2 hours at room temperature, followed by the addition of 100 μL of affinity-purified goat antihuman hepatocyte growth factor biotin (150 ng/mL) for an additional 1 hour at room temperature. Avidin-conjugated horseradish peroxidase (40 ng/mL) in PBS, 0.5% BSA, 0.05% P 20, 10 ppm Proclin300, pH 7.4, was added (1 hour, room temperature), and the reaction was visualized by the addition of 100 μL of chromogenic substrate (TMB) for 15 minutes. The reaction was stopped with 1M phosphoric acid and absorbance at 450 nm was measured with reduction at 630 nm with an ELISA plate reader. Plates were washed 3 times with washing buffer (0.05% Tween 20/PBS) after each step. As a reference for quantification, a standard curve was established by a serial dilution of human hepatocyte growth factor (CritRS CR67; 2000-15.625 pg/mL).
HGF levels were log-transformed, and the Kolmogorov-Smirnoff test was used to test the resulting distribution for departure from the Gaussian distribution. The Cox-proportional model was used to test the log-transformed HGF levels for association with the progression free survival (PFS) and overall survival (OS). Association between the response and HGF levels was tested using the Wilcoxon rank-sum test. Kaplan-Meier (KM) curves were used to show display the relationship between the HGF levels and the time-to-event outcomes (PFS and OS). […] The cox-proportional model of the outcome as the function of the continuous HGF level was used to calculate the hazard ratio and corresponding p-value.
Where [9] appears, read: 10 mice per group, 4 weeks, PR = tumour volume reduction >50% but <100%.

For the compound `Cn1c(=O)n(-c2ccc(C(C)(C)C#N)cc2)c2c3cc(-c4cnc5ccccc5c4)ccc3ncc21` [BEZ235, reference compound], the “reversal of HGF-induced rescue by PI3K versus MAPK pathway inhibition” value in experiment [1] (100 nM BEZ235 or AZD6244, HGF 50 ng/mL, with kinase inhibitor) is reported as “more potent at reversing ligand—induced rescue”.
For `CCN1CC[C@@H](Nc2n[nH]c3nccc(Oc4ccc(NC(=O)c5ccnn(-c6ccc(F)cc6)c5=O)cc4F)c23)[C@@H](F)C1` [GDC-0712, N-(4-(3-((3S,4R)-1-ethyl-3-fluoropiperidine-4-ylamino)-1H-pyrazolo[3,4-b]pyridin-4-yloxy)-3-fluorophenyl)-2-(4-fluorophenyl)-3-oxo-2,3-dihydropyridazine-4-carboxamide], in the experiment with 928MEL xenografts (setting [9]), the “partial responses, PLX[…] with MET kinase inhibition” value is recorded as 8. In addition, the “tumor regression, B-raf antagonist plus c-met antagonist versus PLX[…] alone” value in the experiment with 928MEL xenografts was “greater effect on tumor regression”.
`N.N.[Cl][Pt][Cl]` [cisplatin]: the “RTK ligand rescue from growth suppressive effects of cisplatin” value in experiment [2] was “none of the tested RTK ligands could rescue cells”.
Take `C[C@@H](Oc1cc(-c2cnn(C3CCNCC3)c2)cnc1N)c1c(Cl)ccc(F)c1Cl` [crizotinib, 3-[(1R)-1-(2,6-dichloro-3-fluorophenyl)ethoxy]-5-(1-piperidin-4-ylpyrazol-4-yl)pyridin-2-amine]: the “reversal of HGF survival rescue by MET inhibition” value in experiment [3] (PLX[…], HGF 50 ng/mL, crizotinib 0.5 μM, 72 h) is “survival rescue by HGF was reversed”. Moreover, in [4], the “emergence of lapatinib resistance under MET kinase inhibition” value is “delayed the emergence of lapatinib resistance”.
With “FGF: recombinant human FGF-basic purchased from Peprotech”, the “effect of RTK ligand on conferring drug resistance to kinase inhibitors” value (shortened to “effect of RTK ligand … to kinase inhibitors”) in [1] is reported as “most broadly active ligands”. In experiment [5], the “PI3K/MAPK pathway re-activation by RTK ligand in presence of kinase inhibitor” value was “only re-activated the MAPK pathway”. Also, in experiment [6], the “rescue from kinase inhibition by activating both PI3K and MAPK pathways” value is recorded as “additive”.
Take “IGF: recombinant human IGF-1 purchased from Peprotech”: the “effect of RTK ligand … to kinase inhibitors” value in experiment [1] is recorded as “relatively little effect”. The “PI3K/MAPK pathway re-activation by RTK ligand in presence of kinase inhibitor” value in experiment [5] was “only re-activated the PI3K”. The “downstream signalling after receptor activation in non-rescued cells” value in experiment [5] (COLO-201 and BT474 cell lines, IGF) is recorded as “downstream signalling via PI3K or MAPK was not observed”.
For “NRG1: HER3 ligand, rhNRG1-β1 purchased from R and D Systems”, in [1], the “effect of RTK ligand … to kinase inhibitors” value is reported as “most broadly active ligands”. For the same compound, the “rescue despite activation of receptor and a downstream survival effector” value in experiment [1] (H2228 and H358 cells with HGF, COLO-201 cells with NRG1) is reported as “not sufficient to rescue cells from kinase inhibition”. In addition, in experiment [7], the “number of HER2-amplified breast cancer cell lines rescued from lapatinib” value was 8 of the 9. Also, the “PI3K/MAPK pathway re-activation by RTK ligand in presence of kinase inhibitor” value in experiment [5] is recorded as “only re-activated the PI3K”. In addition, in experiment [6], the “rescue from kinase inhibition by activating both PI3K and MAPK pathways” value was “additive”.
“PDGF: recombinant human PDGF-AB purchased from Peprotech”: the “effect of RTK ligand … to kinase inhibitors” value in experiment [1] is given as “relatively little effect”.
For the compound PLX4032, the “correlation of MET expression with PLX[…] sensitivity” value in experiment [3] (HGF-rescuable cell lines) is “inversely correlated”. The “partial responses, PLX[…] alone” value with 928MEL xenografts (setting [9]) came to 1. In addition, in the experiment on 928MEL xenografts, the “tumor regression, B-raf antagonist plus c-met antagonist versus PLX[…] alone” value was “statistically significant improvement in tumor regression”. Also, the “hazard ratio, overall survival with increased HGF” value in experiment [8] (Cox-proportional model, p<0.001) turned out to be 1.8. In addition, in [8] (Cox-proportional model, p<0.005), the “hazard ratio, progression free survival with increased HGF” value was found to be 1.42. Further, the “overall survival, HGF above median versus below median” value in experiment [8] (median plasma HGF 334 pg/mL, p<0.001) is “substantially reduced”. For the same compound, the “progression-free survival, HGF above median versus below median” value in experiment [8] (median plasma HGF 334 pg/mL, p=0.005) is recorded as “substantially reduced”.
